Assay results taken from patent publication US20250212884A1, “Magnesia Compounds For Preventing Contamination Of Animal Farming Facilities And For Decontamination Of Same” (priority 2022, published 2025).

Test system: Salmonella
Assay: Salmonella detection (drag swabs, ISO 6579-1:2017) in poultry (turkey) buildings one week after spraying of disinfectant
Design: species or system Salmonella spp.
Conditions: Experiment 3; one week after application; 500 liter per 1000 m^2

SMILES: Cc1ccc(S(=O)(=O)NCl)cc1.[Na] [Chlorigal T, Sodium N-chloro-para-toluenesulfonamide]
- Salmonella test result, Sample #1: Negative
- Salmonella test result, Sample #2: Negative
